Data as given in ChEMBL document CHEMBL1201862, “PubChem BioAssay data set” (2004).
Calls of active or inactive are those of the source.

Tests used:
[1] = tested on: Streptococcus sp. 'group A'; experiment: Streptococcus pyogenes SK(-)GAS viability under kanamycin – luminescence, BacTiterGlo, confirmation, counter-screen for streptokinase expression inhibitor project, dose response (AID 1900); type: functional, organism-based
[2] = HPDE-C7 pancreatic duct cell viability loss – fluorescence, HTS (AID 430); type: functional, cell-based; settings: Homo sapiens
[3] = viability loss of HPDE-C7K cells – cell-based, fluorescence, HTS, primary screen (AID 431); type: functional; settings: Homo sapiens
Streptococcus = experiment: GAS UMAA2166 growth inhibition – luminescence, BacTiterGlo, counter-screen for streptokinase expression inhibitor project, dose response (AID 1915); type: functional, organism-based;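 further: potency for reduction of bacterial viability or growth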
Caspase-6 = biological target: T1, Caspase-6 (Homo sapiens, UniProt P55212); experiment: inhibition of CASP6 peptide cleavage – biochemical, VEID-R110 fluorescence, cherry-pick, dose response (AID 720632)
T1 sequence (P55212 whole entry): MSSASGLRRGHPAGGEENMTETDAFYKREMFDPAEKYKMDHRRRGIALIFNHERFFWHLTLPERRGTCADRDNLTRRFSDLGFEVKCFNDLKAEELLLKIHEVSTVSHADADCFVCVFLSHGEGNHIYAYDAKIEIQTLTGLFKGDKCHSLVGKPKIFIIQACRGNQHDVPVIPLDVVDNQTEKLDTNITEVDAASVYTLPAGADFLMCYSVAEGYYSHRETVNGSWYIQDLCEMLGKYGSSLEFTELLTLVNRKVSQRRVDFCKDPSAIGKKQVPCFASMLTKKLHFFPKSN

cells = type: functional
Cytochrome P450 3A4 = Cytochrome P450 3A4 (Homo sapiens, UniProt P08684); settings: Potency;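 further: confirmatory qHTS run detecting inhibitors and substrates of CYP3A4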
Leucine aminopeptidase = biological target: T2, Leucine aminopeptidase (Plasmodium falciparum 3D7, UniProt Q8IL11); experiment: P. falciparum M17LAP inhibitors, primary screen, biochemical, fluorogenic H-Leu-NHMec substrate, 1536-well (AID 1619); type: functional
T2 sequence (Q8IL11 whole entry): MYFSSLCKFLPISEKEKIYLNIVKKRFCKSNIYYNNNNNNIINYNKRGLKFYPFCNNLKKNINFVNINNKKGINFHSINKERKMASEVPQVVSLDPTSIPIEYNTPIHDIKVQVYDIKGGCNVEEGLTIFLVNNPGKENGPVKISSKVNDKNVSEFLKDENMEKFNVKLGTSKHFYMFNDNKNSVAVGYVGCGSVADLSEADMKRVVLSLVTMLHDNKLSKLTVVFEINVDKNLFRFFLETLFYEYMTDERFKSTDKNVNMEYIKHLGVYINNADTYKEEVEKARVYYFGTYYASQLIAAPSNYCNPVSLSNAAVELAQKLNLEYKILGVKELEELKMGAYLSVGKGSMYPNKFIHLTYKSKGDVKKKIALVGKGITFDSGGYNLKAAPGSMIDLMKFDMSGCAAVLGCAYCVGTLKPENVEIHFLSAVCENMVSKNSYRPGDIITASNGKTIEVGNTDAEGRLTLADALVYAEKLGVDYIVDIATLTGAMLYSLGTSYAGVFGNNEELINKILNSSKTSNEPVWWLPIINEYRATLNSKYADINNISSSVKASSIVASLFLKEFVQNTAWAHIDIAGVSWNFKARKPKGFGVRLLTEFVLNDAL

[4] = microbe, parasite or virus in culture; type: functional; settings: Mycobacterium tuberculosis
HEK293 = experiment: EBV LMP1 TES2 canonical NF-kB signalling blockers – cell-based, HEK293, luciferase, cherry-pick, dose response (AID 588343); type: functional; settings: Homo sapiens
[5] = reduction of Shn3 3'UTR-driven luciferase in osteoblasts – cell-based, Clone20 osteoblasts, firefly luciferase, cherry-picked, dose response (AID 624132); type: functional;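 further: firefly luciferase luminescence from reporter carrying the Shn3 3'UTR in osteoblasts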
[6] = loss of viability in HepG2 cells – cell-based, CellTiter-Glo, cherry-picked, cytotoxicity control for Shn3 inhibitor project, dose response (AID 624134); type: functional
[7] = non-specific 3'UTR reporter inhibition in Clone20-Shn3RL – cell-based, Renilla luciferase, cherry-picked, counter-screen for Shn3 inhibitor project, dose response (AID 624133); type: functional
[8] = blockers of HIV-1 envelope-mediated cell-cell fusion – cherry-pick, dose response (AID 652057); type: functional, cell-based
[9] = viability loss in CEM21 cells – cell-based, CellTiter-Glo luminescence, cherry-picked, cytotoxicity control for viral fusion inhibitor project, dose response (AID 652042); type: functional;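 further: potency for signal decrease meaning cytotoxicity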
[10] = blockers of HIV-1 ZM109 envelope-driven cell-cell fusion – HeLa effector, CEM target cells, luciferase, cherry-pick, dose response (AID 652058); type: functional, cell-based;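 further: luciferase signal from HIV-1 Env mediated cell-cell fusion of effector and target cells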
[11] = HIV-1 AD8 envelope cell-cell fusion blockers – cherry-pick, dose response (AID 652062); type: functional, cell-based;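 further: luciferase signal from cell-cell fusion driven by HIV-1 clade B AD8 Env; potency is for inhibitors of fusion seen as a drop in luminescence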
[12] = biological target: Eukaryotic translation initiation factor 4E (Mus musculus, UniProt P63073); experiment: blockers of eIF4G binding by eIF4E – biochemical, TR-FRET, dose response (AID 855); type: functional;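 further: potency for disrupting eIF4E binding to eIF4GI seen as loss of FRET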
[13] = growth inhibition of yeast DHODH-expressing 3D7 parasites – SYBR Green, dry powder samples, dose response (AID 1159570); type: functional, cell-based;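 further: parasite growth measured after 72 hours of compound exposure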
[14] = toxicity to human HepG2 hepatoma cells – cell-based, plate reader, dry powder samples, cytotoxicity control, dose response (AID 1159569); type: functional;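 further: inhibitor potency with signal falling toward the positive control level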
[15] = P. falciparum Dd2 growth inhibitors, dose response, SYBR Green, cherry-picked samples (AID 1159567); type: functional, cell-based
[16] = Dd2 malaria parasite growth inhibition potency – SYBR Green, dry powder samples, dose response (AID 1159566); type: functional, cell-based;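 further: potency for growth inhibition with lower SYBR green DNA signal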
[17] = growth inhibition of PfATP4-mutant resistant parasites – NITD609-resistant line, SYBR Green, dry powder, dose response (AID 1159571); type: functional, cell-based;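 further: parasites synchronized at ring stage by sorbitol before testing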
[18] = biological target: Induced myeloid leukemia cell differentiation protein Mcl-1 (Homo sapiens, UniProt Q07820); type: functional
[19] = NIH-3T3 fibroblast cytotoxicity, dose response, cytotoxicity control, cell-based, fluorescence, Alamar Blue, secondary assay (AID 2327); type: functional;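 further: NIH-3T3 mouse fibroblasts cultured with fluconazole at 8 µg/mL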
[20] = biological target: Transitional endoplasmic reticulum ATPase (Homo sapiens, UniProt P55072, C522A); experiment: C522A mutant p97 ATPase inhibitors, dose response, counter-screen for p97 inhibitor project, biochemical, luminescence (AID 1544)
Streptokinase A = biological target: T3, Streptokinase A (Streptococcus pyogenes serotype M1, UniProt P10520); experiment: viability-normalized secreted streptokinase activity reduction – plasminogen activation absorbance, OD405, dose response (AID 1914); type: functional, Streptococcus pyogenes M1 GAS;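 further: secreted streptokinase activity via plasminogen activation per viability signal from cell pellet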
T3 sequence (P10520 whole entry): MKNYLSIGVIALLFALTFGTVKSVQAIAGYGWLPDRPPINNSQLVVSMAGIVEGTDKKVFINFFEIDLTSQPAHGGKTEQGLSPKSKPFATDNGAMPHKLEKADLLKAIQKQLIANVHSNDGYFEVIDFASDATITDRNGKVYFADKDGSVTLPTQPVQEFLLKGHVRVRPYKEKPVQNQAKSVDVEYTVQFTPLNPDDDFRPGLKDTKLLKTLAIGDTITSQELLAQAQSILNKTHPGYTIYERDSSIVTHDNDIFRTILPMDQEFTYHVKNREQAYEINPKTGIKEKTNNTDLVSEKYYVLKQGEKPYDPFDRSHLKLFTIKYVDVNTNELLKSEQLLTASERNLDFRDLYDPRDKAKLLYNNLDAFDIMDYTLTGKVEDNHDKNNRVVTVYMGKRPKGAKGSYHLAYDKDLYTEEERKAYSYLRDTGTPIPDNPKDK

[21] = fluconazole-exposed Candida albicans growth modulators – fluorescence, retest, confirmation (AID 2467); type: functional, cell-based
[22] = biological target: Transitional endoplasmic reticulum ATPase (Homo sapiens, UniProt P55072); experiment: p97 ATPase inhibitors, dose response, biochemical (AID 1534)
INS1 = experiment: INS-1E survival protection against cytokine death – cell-based, luminescence, retest, dose response (AID 449756); type: functional; settings: Rattus norvegicus;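 further: cell death triggered by IL-1 beta plus TNF-alpha plus IFN-gamma mixture; protective hits raise ATP signal compared with cytokine alone wells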
[23] = viability of PTEN-deleted HCT116 cells – cell-based, HCT116 PTEN knockout, dose response (AID 1047); type: functional;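 further: HCT116 colon tumor cells with PTEN knocked out; cells exposed to compound for 60 hours before readout; potency for loss of cell viability measured by luminescence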
[24] = viability of HCT116 lacking mutant beta-catenin – cell-based, human colon tumor, dose response (AID 1045); type: functional;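 further: HCT116 colon tumor cells with beta catenin knocked out; cells exposed to compound for 60 hours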

Chain of Cytochrome P450 3A4 (P08684 whole entry): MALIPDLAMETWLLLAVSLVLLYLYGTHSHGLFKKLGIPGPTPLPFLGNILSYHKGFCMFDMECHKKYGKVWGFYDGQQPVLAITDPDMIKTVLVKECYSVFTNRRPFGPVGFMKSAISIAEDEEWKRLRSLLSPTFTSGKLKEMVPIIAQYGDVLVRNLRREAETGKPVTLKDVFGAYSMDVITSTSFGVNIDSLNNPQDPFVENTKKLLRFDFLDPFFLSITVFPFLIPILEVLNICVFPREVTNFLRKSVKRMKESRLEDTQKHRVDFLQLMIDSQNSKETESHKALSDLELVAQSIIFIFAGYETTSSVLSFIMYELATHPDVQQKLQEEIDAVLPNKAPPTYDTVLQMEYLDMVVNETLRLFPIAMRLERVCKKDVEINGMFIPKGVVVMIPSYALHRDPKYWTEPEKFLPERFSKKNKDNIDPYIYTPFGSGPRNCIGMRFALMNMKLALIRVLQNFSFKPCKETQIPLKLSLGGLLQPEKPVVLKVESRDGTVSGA
Chain of Transitional endoplasmic reticulum ATPase (Homo sapiens, UniProt P55072) (P55072 whole entry): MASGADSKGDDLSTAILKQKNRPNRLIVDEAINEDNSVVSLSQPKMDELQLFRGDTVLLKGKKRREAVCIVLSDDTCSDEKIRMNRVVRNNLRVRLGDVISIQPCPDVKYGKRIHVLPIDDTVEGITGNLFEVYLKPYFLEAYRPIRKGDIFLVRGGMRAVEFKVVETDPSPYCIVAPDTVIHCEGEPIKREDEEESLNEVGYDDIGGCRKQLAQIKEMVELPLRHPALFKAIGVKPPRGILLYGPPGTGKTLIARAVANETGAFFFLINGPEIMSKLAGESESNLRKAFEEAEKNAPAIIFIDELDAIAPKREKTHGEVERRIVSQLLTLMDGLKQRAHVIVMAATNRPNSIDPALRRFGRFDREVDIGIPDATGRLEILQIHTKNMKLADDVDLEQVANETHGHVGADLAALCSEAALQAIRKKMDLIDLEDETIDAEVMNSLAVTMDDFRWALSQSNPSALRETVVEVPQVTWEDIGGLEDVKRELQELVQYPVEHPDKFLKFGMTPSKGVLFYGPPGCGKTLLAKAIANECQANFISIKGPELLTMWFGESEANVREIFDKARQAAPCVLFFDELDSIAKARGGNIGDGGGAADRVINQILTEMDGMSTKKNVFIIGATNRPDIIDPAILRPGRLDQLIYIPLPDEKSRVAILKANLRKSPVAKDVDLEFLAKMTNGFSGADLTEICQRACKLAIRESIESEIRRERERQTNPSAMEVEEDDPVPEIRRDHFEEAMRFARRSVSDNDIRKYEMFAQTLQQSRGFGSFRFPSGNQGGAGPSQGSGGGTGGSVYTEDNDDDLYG
Chain of Transitional endoplasmic reticulum ATPase (Homo sapiens, UniProt P55072, C522A) (P55072 2-806 C522A limits assumed): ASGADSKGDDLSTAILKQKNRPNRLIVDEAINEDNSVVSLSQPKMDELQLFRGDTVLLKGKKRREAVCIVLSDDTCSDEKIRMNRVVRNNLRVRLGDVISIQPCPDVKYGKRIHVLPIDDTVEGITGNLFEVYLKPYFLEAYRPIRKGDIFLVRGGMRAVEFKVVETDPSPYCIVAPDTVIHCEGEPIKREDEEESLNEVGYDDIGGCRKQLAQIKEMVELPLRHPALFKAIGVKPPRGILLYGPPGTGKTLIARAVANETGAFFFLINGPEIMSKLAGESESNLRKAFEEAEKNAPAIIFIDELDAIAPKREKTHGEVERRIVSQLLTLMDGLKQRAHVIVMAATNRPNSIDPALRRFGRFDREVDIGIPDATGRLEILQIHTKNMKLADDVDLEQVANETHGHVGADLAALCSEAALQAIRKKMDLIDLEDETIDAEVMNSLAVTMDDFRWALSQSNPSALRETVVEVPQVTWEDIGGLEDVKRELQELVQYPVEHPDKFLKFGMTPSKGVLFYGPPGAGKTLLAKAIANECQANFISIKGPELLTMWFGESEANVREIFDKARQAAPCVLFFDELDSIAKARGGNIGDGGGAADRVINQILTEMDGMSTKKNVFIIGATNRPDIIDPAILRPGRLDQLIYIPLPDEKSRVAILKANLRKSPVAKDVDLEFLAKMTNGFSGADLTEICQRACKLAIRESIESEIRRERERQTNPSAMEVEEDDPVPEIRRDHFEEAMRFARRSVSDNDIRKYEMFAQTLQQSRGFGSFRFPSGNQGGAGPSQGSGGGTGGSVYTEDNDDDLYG
Chain of Eukaryotic translation initiation factor 4E (P63073 whole entry): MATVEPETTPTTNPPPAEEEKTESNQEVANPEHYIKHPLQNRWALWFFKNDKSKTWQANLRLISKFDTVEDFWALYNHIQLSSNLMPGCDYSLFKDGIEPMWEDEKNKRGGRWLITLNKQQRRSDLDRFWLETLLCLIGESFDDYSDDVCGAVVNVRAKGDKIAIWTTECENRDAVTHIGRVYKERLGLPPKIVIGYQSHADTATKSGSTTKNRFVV
Chain of Induced myeloid leukemia cell differentiation protein Mcl-1 (Q07820 whole entry): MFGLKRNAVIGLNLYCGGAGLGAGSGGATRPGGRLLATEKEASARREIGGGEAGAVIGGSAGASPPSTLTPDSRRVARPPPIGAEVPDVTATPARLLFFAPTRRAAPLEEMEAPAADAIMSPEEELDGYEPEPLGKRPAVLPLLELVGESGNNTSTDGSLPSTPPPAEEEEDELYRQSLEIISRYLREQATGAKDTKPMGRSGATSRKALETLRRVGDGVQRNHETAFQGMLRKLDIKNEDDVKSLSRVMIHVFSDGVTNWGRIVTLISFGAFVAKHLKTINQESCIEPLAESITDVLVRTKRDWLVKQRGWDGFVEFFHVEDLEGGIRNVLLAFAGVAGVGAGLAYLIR

## CCCCC(=O)O[C@H]1CC[C@H]2[C@@H]3CCc4cc(O)ccc4[C@H]3CC[C@]12C [ESTRADIOL VALERATE]
[1]
  EC50: 2.3 µM (active)
[2]
  EC50: 18.9 µM (active)
[3]
  EC50: > 20 µM (not active)
Streptococcus
  EC50: 2.29 µM (active)

## CC(C)CN1C(=O)NC2(CCCc3ccccc32)C1=O (stereo unspecified)
Caspase-6
  AC50: 51.7 µM (active)

## COC(=O)c1ccc(Cn2cc(C(F)(F)F)cc([N+](=O)[O-])c2=O)cc1
cells
  IC50: 1.28 µM (active)

## COC(=O)[C@@H]1C[C@@]2(O)[C@H](O)[C@H](O)[C@H](O)C[C@H]2N1Cc1ccc(C(F)(F)F)cc1
Cytochrome P450 3A4
  AC50: 20 µM (inconclusive)

## O=C(CC(Nc1cccc(Cl)c1Cl)C(=O)O)c1ccccc1 (stereo unspecified)
Leucine aminopeptidase
  IC50: 14.2 µM (active)

## CCOC(=O)COc1ccc(C(=O)c2ccccc2)c(O)c1
cells
  IC50: 3.02 µM (active)

## Cc1ccc2[nH]c3c(N4CCN(Cc5ccccc5)CC4)ncnc3c2c1
[2]
  EC50: 14.1 µM (active)
[4]
  CC50: 35.2 µM (active)
[3]
  EC50: 16.8 µM (active)
HEK293
  AC50: 11.8 µM (active)
[5]
  AC50: 4.18 µM (active)
[6]
  AC50: 30.8 µM (active)
[7]
  AC50: 20.3 µM (active)
[8]
  AC50: 8.98 µM (active)
[9]
  AC50: 26.2 µM (active)
[10]
  AC50: 0.671 µM (active)
[11]
  AC50: 19.5 µM (active)

## CCc1ccc(-c2nn(Cc3ccccc3)cc2/C=C/C(=O)O)cc1
Leucine aminopeptidase
  IC50: 31.5 µM (active)

## O=P(NS(=O)(=O)c1ccc(Br)cc1)(Oc1ccccc1)Oc1ccccc1
Leucine aminopeptidase
  IC50: 30.1 µM (active)

## CCOC(=O)/C(C#N)=C/c1ccc(OC(=O)c2ccccn2)cc1
[12]
  IC50: > 64 µM (inactive)

## COc1ccc(-c2ccccc2[C@H]2[C@@H](C#N)N(C(=O)NC3CCCCC3)[C@H]2CO)cc1
[13]
  AC50: 4.54 µM (active)
[14]
  AC50: > 100 µM (inactive)
[15]
  AC50: 3.13 µM (active)
[16]
  AC50: 3.88 µM (active)
[17]
  AC50: 8.21 µM (active)

## CC(NC(=O)COc1ccc(-c2ccccc2)cc1)C1CCCO1 (stereo unspecified)
cells
  IC50: 45.6 µM (active)

## CC(=O)Oc1ccc2c(c1)CCC1C2CC[C@]2(C)C(OC(C)=O)CCC12 (stereo partly specified)
Cytochrome P450 3A4
  AC50: 31.6 µM (inconclusive)

## COc1cc(C(=O)OCC(=O)N2CCCC2=O)cc(OC)c1C
Caspase-6
  AC50: 18.5 µM (active)

## CO[C@H]1CN(C)C(=O)c2ccc(NC(=O)Nc3ccc(C(F)(F)F)cc3)cc2OC[C@H](C)NC[C@H]1C
[13]
  AC50: 1.37 µM (active)
[14]
  AC50: 26.9 µM (active)
[15]
  AC50: 3.01 µM (active)
[16]
  AC50: 2.16 µM (active)
[17]
  AC50: 2.17 µM (active)

## NC(=O)c1c(Nc2nc3c(F)cccc3s2)sc2c1CCCC2
Leucine aminopeptidase
  IC50: 81.8 µM (active)
[18]
  IC50: 2.76 µM (active)

## CO[C@H]1CN(C)C(=O)c2cc(NC(=O)c3ccccc3F)ccc2OC[C@H](C)N(C(=O)c2ccccc2F)C[C@H]1C
[13]
  AC50: 2.93 µM (active)
[14]
  AC50: > 100 µM (inactive)
[15]
  AC50: 2.47 µM (active)
[16]
  AC50: 1.78 µM (active)
[17]
  AC50: 1.53 µM (active)

## Cc1ccc(SC/C(O)=C(\C#N)c2nc3ccccc3s2)cc1
[19]
  EC50: 138 µM (active)
[1]
  EC50: 2.95 µM (active)
[20]
  IC50: > 50 µM (not active)
Streptokinase A
  EC50: > 150 µM (not active)
[21]
  EC50: 0.425 µM (active)
[22]
  IC50: > 50 µM (not active)
Streptococcus
  EC50: 7.74 µM (active)

## Cc1cccc(OC(=O)c2ccc3nccnc3c2)c1
cells
  IC50: 9.63 µM (active)

## CCN1CCCC1Cn1c(-c2ccccc2)nc2c(N3CCOCC3)nc(C)nc21 (stereo unspecified)
Cytochrome P450 3A4
  AC50: 12.6 µM (inconclusive)

## Oc1ccc(COCc2ccccc2)c2cccnc12
[1]
  EC50: 2.14 µM (active)
[2]
  EC50: 10.4 µM (active)
[3]
  EC50: 8.49 µM (active)
Streptococcus
  EC50: 3.25 µM (active)
INS1
  AC50: 1.77 µM (active)

## COc1ccccc1NC(=O)N1CCCCN2[C@H](CO)[C@H](c3ccc(C#Cc4ccccc4)cc3)[C@@H]2C1
[13]
  AC50: 0.0745 µM (active)
[14]
  AC50: > 100 µM (inactive)
[15]
  AC50: < 0.3 µM (active)
[16]
  AC50: 0.118 µM (active)
[17]
  AC50: 0.0817 µM (active)

## O=C(Oc1ccccc1)c1cccc2cccnc12
[2]
  EC50: 5.75 µM (active)
[3]
  EC50: > 20 µM (not active)
[23]
  EC50: 11.3 µM (active)
[24]
  EC50: 11.5 µM (active)
